Measured values reported in US20240101528A1, “SUBSTITUTED PYRAZOLO PIPERIDINE CARBOXYLIC ACIDS” (BAYER AKTIENGESELLSCHAFT, priority 2020, published 2024).
Structures can show the parent of a compound that is named as a salt. Each block holds one molecule with its values, some of them ahead of it.

Molecular target: T1, recombinant guanylate cyclase reporter cell line (Rattus norvegicus, UniProt P20595)
T1 construct: expressed in transfected cells
T1 sequence (P20595 1-619): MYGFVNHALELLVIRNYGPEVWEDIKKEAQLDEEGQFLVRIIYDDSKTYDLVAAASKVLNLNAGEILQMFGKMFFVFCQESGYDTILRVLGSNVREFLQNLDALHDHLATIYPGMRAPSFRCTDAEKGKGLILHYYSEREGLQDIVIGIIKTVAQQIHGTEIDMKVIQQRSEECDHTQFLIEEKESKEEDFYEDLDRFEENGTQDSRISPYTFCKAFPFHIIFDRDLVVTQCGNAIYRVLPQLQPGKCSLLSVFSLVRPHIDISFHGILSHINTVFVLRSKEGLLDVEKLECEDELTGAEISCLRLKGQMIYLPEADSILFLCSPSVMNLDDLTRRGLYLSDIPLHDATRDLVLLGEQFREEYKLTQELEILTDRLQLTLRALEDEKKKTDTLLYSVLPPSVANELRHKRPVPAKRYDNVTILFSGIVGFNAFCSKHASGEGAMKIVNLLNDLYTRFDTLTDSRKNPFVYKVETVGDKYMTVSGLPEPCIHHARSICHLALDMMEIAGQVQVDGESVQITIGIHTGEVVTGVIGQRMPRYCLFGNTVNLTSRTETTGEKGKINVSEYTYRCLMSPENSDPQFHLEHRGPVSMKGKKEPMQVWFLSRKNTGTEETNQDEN
T1 sequence (P19686 1-690 partner): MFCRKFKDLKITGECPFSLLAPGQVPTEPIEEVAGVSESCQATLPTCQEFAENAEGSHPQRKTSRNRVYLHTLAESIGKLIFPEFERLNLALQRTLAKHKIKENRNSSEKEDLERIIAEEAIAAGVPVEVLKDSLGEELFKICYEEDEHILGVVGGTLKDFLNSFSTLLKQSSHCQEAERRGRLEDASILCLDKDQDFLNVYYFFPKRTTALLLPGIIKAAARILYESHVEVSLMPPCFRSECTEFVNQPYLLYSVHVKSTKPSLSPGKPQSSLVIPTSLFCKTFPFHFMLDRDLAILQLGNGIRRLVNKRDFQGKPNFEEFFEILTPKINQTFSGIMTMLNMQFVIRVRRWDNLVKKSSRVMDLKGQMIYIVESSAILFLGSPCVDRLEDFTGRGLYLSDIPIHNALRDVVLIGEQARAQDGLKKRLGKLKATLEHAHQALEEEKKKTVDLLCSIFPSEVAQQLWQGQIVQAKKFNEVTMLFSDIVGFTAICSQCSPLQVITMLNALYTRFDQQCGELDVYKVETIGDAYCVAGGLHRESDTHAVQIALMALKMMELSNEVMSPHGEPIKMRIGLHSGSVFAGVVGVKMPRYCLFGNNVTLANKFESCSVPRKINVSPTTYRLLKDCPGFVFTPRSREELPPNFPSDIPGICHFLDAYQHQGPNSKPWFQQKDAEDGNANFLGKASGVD
Test: Effect on a recombinant guanylate cyclase reporter cell line
Format: cell-based
Conditions: for EC50: half maximal effective concentration; for MEC: minimum effective concentration
Experimental: B-1. Effect on a Recombinant Guanylate Cyclase Reporter Cell Line
The cellular activity of the compounds according to the invention was determined using a recombinant guanylate cyclase reporter cell line, as described in F. Wunder et al., Anal. Biochem. 339, 104-112 (2005).

SMILES: CC(F)(F)CN1CCN(c2ccc(-c3ccc(Cl)cc3N3CCCC(n4ncc(C(=O)O)c4C(F)F)C3)cc2)CC1 (single isomer, unassigned; enantiomer 2) [Example 25, 1-(1-{4-Chloro-4′-[4-(2,2-difluoropropyl)piperazin-1-yl][biphenyl]-2-yl}piperidin-3-yl)-5-(difluoromethyl)-1H-pyrazole-4-carboxylic acid hydrochloride (Enantiomer 2)]
EC50: 2.4 nM
MEC: 0.3 nM

SMILES: O=C(O)c1cnn(C2CCCN(c3cc(Cl)ccc3-c3ccc(N4CCN(C[C@@H]5C[C@@H]5F)CC4)cc3)C2)c1C(F)F (single isomer, unassigned; stereoisomer 2) [Example 36]
EC50: 4.2 nM
MEC: 1.0 nM

SMILES: O=C(O)c1cnn(C2CCCN(c3cc(Cl)ccc3-c3ccc(N4CCN(CC5CC5F)CC4)cc3)C2)c1C(F)F (single isomer, unassigned; diastereomer 4) [Example 34, 1-[1-[5-Chloro-2-[4-[4-[(trans-2-fluorocyclopropyl)methyl]piperazin-1-yl]phenyl]phenyl]-3-piperidyl]-5-(difluoromethyl)pyrazole-4-carboxylic acid hydrochloride (Diastereomer 4)]
EC50: 3.4 nM
MEC: 0.3 nM

SMILES: CCN1CCN(c2ccc(-c3ccc(Cl)cc3N3CCCC(n4ncc(C(=O)O)c4C(F)F)C3)cc2)CC1 (single isomer, unassigned; enantiomer 2) [Example 4, 1-{1-[4-Chloro-4′-(4-ethylpiperazin-1-yl)[biphenyl]-2-yl]piperidin-3-yl}-5-(difluoromethyl)-1H-pyrazole-4-carboxylic acid hydrochloride (Enantiomer 2)]
EC50: 13 nM
MEC: 1.3 nM

SMILES: O=C(O)c1cnn(C2CCCN(c3cc(Cl)ccc3-c3ccc(N4CCN(CC56CC(F)(C5)C6)CC4)cc3)C2)c1C(F)F (single isomer, unassigned; enantiomer 2) [Example 17, 1-[1-(4-Chloro-4′-{4-[(3-fluorobicyclo[1.1.1]pentan-1-yl)methyl]piperazin-1-yl}[biphenyl]-2-yl)piperidin-3-yl]-5-(difluoromethyl)-1H-pyrazole-4-carboxylic acid hydrochloride (Enantiomer 2)]
EC50: 10.2 nM
MEC: 1.0 nM

SMILES: O=C(O)c1cnn(C2CCCN(c3cc(Cl)ccc3-c3ccc(N4CCN(CCOC(F)(F)F)CC4)cc3)C2)c1C(F)F (single isomer, unassigned; enantiomer 2) [Example 26, 1-[1-(4-Chloro-4′-{4-[2-(trifluoromethoxy)ethyl]piperazin-1-yl}[biphenyl]-2-yl)piperidin-3-yl]-5-(difluoromethyl)-1H-pyrazole-4-carboxylic acid hydrochloride (Enantiomer 2)]
EC50: 6.5 nM
MEC: 1.0 nM

SMILES: O=C(O)c1cnn(C2CCCN(c3cc(Cl)ccc3-c3ccc(N4CCN(CC5CC5(F)F)CC4)cc3)C2)c1C(F)F (single isomer, unassigned; diastereomer 2) [Example 29, 1-{1-[4-Chloro-4′-(4-{[2,2-difluorocyclopropyl]methyl}piperazin-1-yl)[biphenyl]-2-yl]piperidin-3-yl}-5-(difluoromethyl)-1H-pyrazole-4-carboxylic acid hydrochloride (Diastereomer 2)]
EC50: 2 nM
MEC: 0.3 nM

SMILES: CC(C)(C)CN1CCN(c2ccc(-c3ccc(Cl)cc3N3CCCC(n4ncc(C(=O)O)c4C(F)F)C3)cc2)CC1 (single isomer, unassigned; enantiomer 1) [Example 12, 1-[(1-{4-Chloro-4′-[4-(2,2-dimethylpropyl)piperazin-1-yl][biphenyl]-2-yl}piperidin-3-yl]-5-(difluoromethyl)-1H-pyrazole-4-carboxylic acid hydrochloride (Enantiomer 1)]
EC50: 61.5 nM
MEC: 10.0 nM

SMILES: O=C(O)c1cnn(C2CCCN(c3cc(Cl)ccc3-c3ccc(N4CCN(CC5CC5F)CC4)cc3)C2)c1C(F)F (single isomer, unassigned; diastereomer 3) [Example 33, 1-[1-[5-Chloro-2-[4-[4-[(trans-2-fluorocyclopropyl)methyl]piperazin-1-yl]phenyl]phenyl]-3-piperidyl]-5-(difluoromethyl)pyrazole-4-carboxylic acid hydrochloride (Diastereomer 3)]
EC50: 4.1 nM
MEC: 0.3 nM

SMILES: O=C(O)c1cnn(C2CCCN(c3cc(Cl)ccc3-c3ccc(N4CCN(CC5CC5(F)F)CC4)cc3)C2)c1C(F)F (single isomer, unassigned; diastereomer 3) [Example 30, 1-{1-[4-Chloro-4′-(4-{[2,2-difluorocyclopropyl]methyl}piperazin-1-yl)[biphenyl]-2-yl]piperidin-3-yl}-5-(difluoromethyl)-1H-pyrazole-4-carboxylic acid hydrochloride (Diastereomer 3)]
EC50: 2 nM
MEC: 0.3 nM

Continued, values first:

EC50: 92 nM
MEC: 30.0 nM
SMILES: CN1CCN(c2ncc(-c3ccc(Cl)cc3N3CCCC(n4ncc(C(=O)O)c4C(F)F)C3)cn2)CC1 (single isomer, unassigned; enantiomer 2) [Example 71, 1-(1-{5-Chloro-2-[2-(4-methylpiperazin-1-yl)pyrimidin-5-yl]phenyl}piperidin-3-yl)-5-(difluoromethyl)-1H-pyrazole-4-carboxylic acid hydrochloride (Enantiomer 2)]

EC50: 42.5 nM
MEC: 10.0 nM
SMILES: O=C(O)c1cnn(C2CCCN(c3cc(Cl)ccc3-c3ccc(N4CCN(C5COC5)CC4)cc3)C2)c1C(F)F (single isomer, unassigned; enantiomer 2) [Example 43, 1-(1-{4-Chloro-4′-[4-(oxetan-3-yl)piperazin-1-yl][biphenyl]-2-yl}piperidin-3-yl)-5-(difluoromethyl)-1H-pyrazole-4-carboxylic acid hydrochloride (Enantiomer 2)]

EC50: 45 nM
MEC: 10.0 nM
SMILES: O=C(O)c1cnn(C2CCCN(c3cc(Cl)ccc3-c3ccc(N4CCCC4)cc3)C2)c1C(F)F (single isomer, unassigned; enantiomer 1) [Example 44, 1-{1-[4-Chloro-4′-(pyrrolidin-1-yl)[biphenyl]-2-yl]piperidin-3-yl}-5-(difluoromethyl)-1H-pyrazole-4-carboxylic acid (Enantiomer 1)]

EC50: 42.5 nM
MEC: 3.0 nM
SMILES: O=C(O)c1cnn(C2CCCN(c3cc(Cl)ccc3-c3ccc(N4CCCC4)cc3)C2)c1C(F)F (single isomer, unassigned; enantiomer 2) [Example 45, 1-{1-[4-Chloro-4′-(pyrrolidin-1-yl)[biphenyl]-2-yl]piperidin-3-yl}-5-(difluoromethyl)-1H-pyrazole-4-carboxylic acid (Enantiomer 2)]

EC50: < 1 nM
MEC: 0.3 nM
SMILES: O=C(O)c1cnn(C2CCCN(c3cc(Cl)ccc3-c3ccc(C4CCN(C(=O)C5CC5)CC4)cc3)C2)c1C(F)F (single isomer, unassigned; enantiomer 2) [Example 57, 1-(1-{4-Chloro-4′-[1-(cyclopropylcarbonyl)piperidin-4-yl][biphenyl]-2-yl}piperidin-3-yl)-5-(difluoromethyl)-1H-pyrazole-4-carboxylic acid hydrochloride (Enantiomer 2)]
